Peptide text beside a SMILES is read from it. * marks the point of attachment. Cbz = O=C(OCc1ccccc1)*
Experiments:
[1] = tested on: proteasome; conditions: 20 μM; Chen et al., 1995; cited from earlier work
[2] = target: T1, IKK (Homo sapiens, UniProt O14920+O15111); assay: In vitro assay for IKK activation by TRAF6 (IκBα phosphorylation); assay type: biochemical; conditions: inhibitor at 20 μM added to the assay
T1 construct: IKK complex was purified form HeLa cells or from calf thymus using ATP-Sepharose; endogenous in cells
T1 sequence (O14920 whole entry): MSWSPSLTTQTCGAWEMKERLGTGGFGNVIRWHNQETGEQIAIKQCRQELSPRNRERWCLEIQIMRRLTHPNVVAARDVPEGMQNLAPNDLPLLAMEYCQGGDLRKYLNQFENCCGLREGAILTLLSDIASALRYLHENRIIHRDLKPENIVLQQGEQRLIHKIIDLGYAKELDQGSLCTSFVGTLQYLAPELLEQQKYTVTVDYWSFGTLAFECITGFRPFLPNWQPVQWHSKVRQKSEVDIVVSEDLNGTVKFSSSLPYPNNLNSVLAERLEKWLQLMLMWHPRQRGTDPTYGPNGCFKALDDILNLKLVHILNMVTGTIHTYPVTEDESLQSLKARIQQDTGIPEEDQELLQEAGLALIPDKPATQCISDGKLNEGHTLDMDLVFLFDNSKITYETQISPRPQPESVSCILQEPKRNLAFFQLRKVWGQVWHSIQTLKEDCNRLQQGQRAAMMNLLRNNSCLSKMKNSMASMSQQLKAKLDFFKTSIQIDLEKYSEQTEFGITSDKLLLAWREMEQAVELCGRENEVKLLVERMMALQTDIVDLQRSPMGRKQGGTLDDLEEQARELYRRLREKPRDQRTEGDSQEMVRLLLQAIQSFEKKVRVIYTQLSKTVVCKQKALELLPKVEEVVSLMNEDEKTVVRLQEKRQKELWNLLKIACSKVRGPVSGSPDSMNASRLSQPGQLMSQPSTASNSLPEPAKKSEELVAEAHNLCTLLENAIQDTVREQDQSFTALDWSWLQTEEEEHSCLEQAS
T1 sequence (O15111 whole entry): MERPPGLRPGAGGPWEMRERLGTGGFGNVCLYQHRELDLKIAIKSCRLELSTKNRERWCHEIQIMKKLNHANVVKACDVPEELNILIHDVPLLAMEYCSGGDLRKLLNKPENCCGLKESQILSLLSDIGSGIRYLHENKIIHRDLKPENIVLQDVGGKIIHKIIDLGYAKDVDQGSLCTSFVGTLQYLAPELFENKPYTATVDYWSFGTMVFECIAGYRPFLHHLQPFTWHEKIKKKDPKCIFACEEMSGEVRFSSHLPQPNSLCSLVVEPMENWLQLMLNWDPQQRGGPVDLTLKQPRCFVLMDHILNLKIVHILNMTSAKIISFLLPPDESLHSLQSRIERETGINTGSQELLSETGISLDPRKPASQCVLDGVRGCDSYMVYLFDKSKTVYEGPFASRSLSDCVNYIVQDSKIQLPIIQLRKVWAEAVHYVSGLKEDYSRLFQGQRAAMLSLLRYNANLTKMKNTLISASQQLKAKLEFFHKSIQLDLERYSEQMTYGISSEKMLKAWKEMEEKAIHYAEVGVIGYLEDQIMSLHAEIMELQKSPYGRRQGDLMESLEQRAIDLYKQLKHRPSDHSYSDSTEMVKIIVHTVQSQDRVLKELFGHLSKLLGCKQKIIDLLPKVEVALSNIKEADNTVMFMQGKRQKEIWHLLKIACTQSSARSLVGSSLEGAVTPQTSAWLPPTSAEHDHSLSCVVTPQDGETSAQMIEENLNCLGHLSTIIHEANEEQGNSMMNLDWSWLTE
T1 sequence (Q9Y6K9 whole entry partner): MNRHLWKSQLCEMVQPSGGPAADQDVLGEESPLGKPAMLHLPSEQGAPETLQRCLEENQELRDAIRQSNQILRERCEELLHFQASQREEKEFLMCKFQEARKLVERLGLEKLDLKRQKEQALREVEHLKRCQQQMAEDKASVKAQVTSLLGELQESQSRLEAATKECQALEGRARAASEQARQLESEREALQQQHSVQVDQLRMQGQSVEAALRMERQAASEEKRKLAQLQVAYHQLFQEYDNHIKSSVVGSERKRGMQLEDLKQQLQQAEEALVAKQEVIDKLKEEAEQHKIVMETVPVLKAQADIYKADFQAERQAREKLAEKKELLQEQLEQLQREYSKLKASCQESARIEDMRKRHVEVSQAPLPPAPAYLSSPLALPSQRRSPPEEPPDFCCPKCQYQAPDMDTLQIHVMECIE
Method: In vitro Assay for IKK Activation. To detect endogenous IKK activation, cell extracts (5 mg/ml) were incubated with TRAF6 (or, T6RZC, 0.1 μM) together with an ATP regenerating buffer (Chen et al., 1995). After incubation at 30° C. for 1 hour, the reaction was analyzed by immunoblotting with a phospho-IκBα specific antibody. To identify intermediary factors involved in TRAF6-mediated IKK activation, the inventors used a reconstitution assay by adding ^35S-IκBα (0.5 μl) and purified IKK complex (5 nM) to a 5 μl reaction mixture that also contains ATP (2 mM), TRAF6 (0.1 μM), and column fractions (0.5-1 μl). In most IKK activation assays, E1 (0.1 μM) and Ub (0.1 mM) were also added to enhance the reaction, although they can be supplied from the wheat germ extracts used for in vitro translation of IκBα. As an assay for purification of TRIKA1, reaction mixtures also contain 0.5 μg TRIKA2/FrIIa, a fraction eluted from Q-Sepharose with 0.2M NaCl. The reaction was carried out at 30° C. for 1 hour, and then analyzed using a PhosphorImager (Molecular Dynamics) following SDS-PAGE.

[3] = tested on: T6RZC stable 293 cells; assay: Coumermycin A-induced TRAF6-gyrase B (T6RZC) dimerization in stable 293 cells, IκBα degradation; assay type: cell-based, human; conditions: 293 cells stably expressing T6RZC; coumermycin A 1 μM
Method: Generation of TRAF6-gyraseB stable cell lines. The TRAF6-gyrase B fusion was constructed by replacing the C-terminal TRAF domain of TRAF6 (residues 1-358) with the N-terminal fragment of bacterial gyrase B (T6RZC). Another chimeric construct contained residues 1-291 of TRAF6 (T6RZ). These chimeras were cloned into the mammalian expression vector pEF-IRES-P (Deng et al., 2000). Following transfection of DNA into 293 cells, stable clones were selected in puromycin (1 μg/ml). To induce the dimerization of TRAF6 and subsequent activation of the JNK and IKK pathways, cells were treated with coumermycin A (1 μM) for different lengths of time, and then cell extracts prepared for further analysis.

Row | Compound | Block of proteasomal activity [1] | Inhibition of IKK activation by TRAF6 [2] | Degradation of IκBα upon addition of the dimerizer [3]
1 | CC(C)C[C@@H](C=O)NC(=O)[C@H](CC(C)C)NC(=O)[C@H](CC(C)C)NC(=O)OCc1ccccc1 [MG132] (Cbz-Leu-Leu-Leu-aldehyde) | completely block | No inhibition | 
2 | CO[C@H]1[C@H](OC(=O)c2ccc(C)[nH]2)[C@H](O)[C@@H](Oc2ccc3c(O)c(NC(=O)c4c[nH]c(C(=O)Nc5c(O)c6ccc(O[C@H]7OC(C)(C)[C@@H](OC)[C@H](OC(=O)c8ccc(C)[nH]8)[C@@H]7O)c(C)c6oc5=O)c4C)c(=O)oc3c2C)OC1(C)C [coumermycin A] |  |  | rapidly degraded
3 | CC(=O)N[C@@H](CSC(=O)[C@]1([C@@H](O)C(C)C)NC(=O)[C@H](C)[C@@H]1O)C(=O)O [lactacystin] | completely block | No inhibition | 
